Reference: patent US20250333775A1, “DIAGNOSTIC TEST AND THERAPY FOR PATIENTS WITH AUTO-BREWERY SYNDROME” (The Regents of the University of California, priority 2024, published 2025)

What was measured:
[1] = tested on: fecal microbiota from patients with clinically documented Auto-brewery Syndrome; assay: Bioreactor cultures of fecal microbiota, ethanol production (ABS patients); format: cell-based, human; conditions: 24 hours
Description: (§1) 100 mg of stool collected from patients during flare and remission and from their household partners was cultured in bioreactor cultures which consisted of 10 mL of Luria Broth (LB) media supplemented with 2 mM glucose and 2 mM cysteine in anaerobic conditions using hungate tubes. This concentration of glucose was chosen to emulate physiologic glucose concentrations in the intestine. Bioreactor cultures were untreated or treated with 0.05% dimethyl sulfoxide (DMSO, vehicle), 10 μg/mL amphotericin B, or 100 μg/mL chloramphenicol. To emulate supraphysiologic concentrations of glucose in the GI tract, patient microbiota was also cultured in LB media supplemented with 100 mM and 200 mM of glucose anaerobically using hungate tubes. Samples were collected at 0, 6, and 24 hours of culturing and ethanol concentration was assessed by high-performance liquid chromatography (HPLC) using a 1260 Infinity IILC system (Agilent, Santa Clara, CA, USA) equipped with an HPX-87H (Biorad, Hercules, CA, USA) or by using an enzyme-based kit (Abcam, in less than 20% of samples, low limit of detection 50 ng/dL).

[2] = tested on: fecal microbiota from household partners; assay: Bioreactor cultures of fecal microbiota, ethanol production (household partners); format: cell-based, human; conditions: household partner samples, 24 hours; 10 μg/mL amphotericin B or 100 μg/mL chloramphenicol
Description: as §1

[3] = samples from ABS patients, compared with DMSO vehicle control, 100 μg/mL chloramphenicol or 10 μg/mL amphotericin B

Row | SMILES | ethanol production in bioreactor cultures [1, 3] | ethanol production in bioreactor cultures ([1]; three ABS patient samples during a flare, 10 μg/mL amphotericin B) | ethanol production in bioreactor cultures [2]
1 | C[C@@H]1[C@H](O)[C@@H](C)/C=C/C=C/C=C/C=C/C=C/C=C/C=C/[C@H](O[C@@H]2O[C@H](C)[C@@H](O)[C@H](N)[C@@H]2O)C[C@@H]2O[C@](O)(C[C@@H](O)C[C@@H](O)[C@H](O)CC[C@@H](O)C[C@@H](O)CC(=O)O[C@H]1C)C[C@H](O)[C@H]2C(=O)O [amphotericin B] | did not have a significant effect | partially reduced | No significant difference
2 | O=C(N[C@H](CO)[C@H](O)c1ccc([N+](=O)[O-])cc1)C(Cl)Cl [chloramphenicol] | significantly decreased | – | No significant difference
